Measurements taken from patent US20060193895A1, “Additive for food and beverage, pharmaceutical composition, GLUT4 translocator, and method for translocating GLUT4” (Use-Techno Corporation, priority 2005, published 2006).

Key:
Format in all cases: in vivo
ddY mice = assay: Blood sugar level of ddY mouse by administration of corosolic acid; conditions: ddY normal mice, oral administration, 2, 4, and 7 hours after the administration
Protocol: KK-Ay mice (CLEA JAPAN, INC.) which are the model animals for Type II diabetes were employed for test animals. These KK-Ay mice aged 6 to 10 weeks, having 300 mg/dL of blood sugar level. Corosolic acid which was extracted from Banaba leaves and purified was forcefully administrated to these KK-Ay mice using an injection syringe and an oral sound for mouse. Blood samples were collected at 2, 4 and 7 hours after the administration using the orbital vein blood sampling method, and the blood sugar levels were determined by the glucose oxidase method. Blood sugar levels were measured on four KK-Ay mice. The measured values were used to calculate an average, which was evaluated by the Student's t-test. […] FIG. 1 describes the blood sugar level data as average value± standard error. The p-value of 0.05 or below in the Student's t-test was rated to be significant (the significance is shown with * mark in the Figure: the same is applied hereinafter). Blood sugar level was determined by the same procedure as described in the above “Blood sugar level in KK-Ay mouse by administration of corosolic acid”, except that the ddY mice which are the normal mice (Japan SLC, Inc.) were employed instead of the KK-Ay mice which are the model animals for Type II diabetes.

[1] = tested on: glucose transporter type 4 (GLUT4); assay: Effect of corosolic acid on GLUT4 in mouse skeletal muscle (western blotting of PM and LDM fractions); conditions: KK-Ay mice, after 4 hours from the administration
Protocol: The intake of sugar into cells is conducted by a carrier protein in the transporting system on cell membrane, called glucose transporter (GLUT). Muscle has glucose transporter type 1 (GLUT1) and glucose transporter type 4 (GLUT4). […] This change in location within a cell is called GLUT4 translocation. It is speculated that significant increase of glucose in muscle and fat tissues is mainly due to the translocation of GLUT4. In view of this point, the effect of corosolic acid on GLUT4 was studied. First, the low density microsome (LDM) fraction and the plasma membrane (PM) fraction were prepared using the sucrose concentration gradient in accordance with the method of Klip et al. (FEBS Lett., 224, 224-230 (1987), Biochem. Biophys. Res. Commum., 172, 728-736 (1990)). On the KK-Ay mouse groups with or without corosolic acid administrated, the relative quantities of GLUT4 in the PM fraction and the LDM fraction were determined after 4 hours from the administration using the western blotting analysis.

KK-Ay mice [2] = assay: Blood sugar level in KK-Ay mouse with administration of corosolic acid; conditions: oral administration
Protocol: KK-Ay mice (CLEA JAPAN, INC.) which are the model animals for Type II diabetes were employed for test animals. These KK-Ay mice aged 6 to 10 weeks, having 300 mg/dL of blood sugar level. Corosolic acid which was extracted from Banaba leaves and purified was forcefully administrated to these KK-Ay mice using an injection syringe and an oral sound for mouse. Blood samples were collected at 2, 4 and 7 hours after the administration using the orbital vein blood sampling method, and the blood sugar levels were determined by the glucose oxidase method. Blood sugar levels were measured on four KK-Ay mice. The measured values were used to calculate an average, which was evaluated by the Student's t-test. […] FIG. 1 describes the blood sugar level data as average value± standard error. The p-value of 0.05 or below in the Student's t-test was rated to be significant (the significance is shown with * mark in the Figure: the same is applied hereinafter).

KK-Ay mice [3] = assay: Serum insulin value in KK-Ay mouse with administration of corosolic acid; conditions: after 4 hours from the administration, vs group without corosolic acid
Protocol: On the KK-Ay mouse groups with or without corosolic acid administrated in “Blood sugar level in KK-Ay mouse by administration of corosolic acid” described above, the serum insulin values were measured after 4 hours from the administration. The serum insulin values were measured by the enzyme 2-antibody method. The measured data were rated by the Student's t-test to determine whether or not they had significant differences according to the same criterion as above.

C[C@H]1[C@H](C)CC[C@]2(C(=O)O)CC[C@]3(C)C(=CC[C@@H]4[C@@]5(C)C[C@@H](O)[C@H](O)C(C)(C)[C@@H]5CC[C@]43C)[C@H]12 [corosolic acid]
change in blood sugar level (ddY mice): No significant difference | relative quantity of GLUT4 in the LDM fraction [1]: decreased the GLUT4 of low density microsome | relative quantity of GLUT4 in the PM fraction [1]: increased it in the plasma membrane fraction | blood sugar level (KK-Ay mice [2]; after 4 hours from the administration): about 280 mg/dL | change in blood sugar level (KK-Ay mice [2]; during 4 hours after the administration, vs control, Student's t-test): significantly decreases | serum insulin value (KK-Ay mice [3]): no significant difference
